SMILES strings stand for the structures. Where two headings read alike, the source gives them in different places.

Experimental findings from patent US12310967B2, “Compositions and methods of treatment for neurological disorders comprising motor neuron diseases” (Gliapharm SA, priority 2017, dated 2025) are described below.

This assay concerns primary astrocytes. Briefly: Extracellular lactate quantification. In kind it is cell-based, mouse. The note with it: Appendix II; for Score Lact.: CDC54K library; for EC50: lactate secretion, read-out: EC50. How it is done:
Secretion of L-lactate was determined in the extracellular medium of 96-well plated astrocytes after 90 min stimulation (at 37° C., in 5% CO2/95% air conditions) with the drug of interest. The stimulation medium was composed of D5030 medium (completed with D-glucose 5 mM and 44 mM sodium bicarbonate) for 90 min in concentrations ranging from 0 to 100 μM.
Briefly, 200 μl of a Glycine (Sigma)-Semicarbazide (Acros) 0.2M pH 10 buffer containing 3 mM NAD (Roche) and LDH 14 U/ml (Roche) was added to each well of a 96-well plate containing 30 μl aliquots complemented with 20 μl fresh complete D5030 medium. Samples were incubated at 37° C. for 1 h. After samples cooled down at room temperature, the fluorescence intensity (340 nm excitation/450 nm emission) that represents the amount of NADH produced was measured, and lactate concentration values were determined from a standard curve of L-lactate.
Statistical analysis consisted in ANOVA followed by Fisher LSD post-hoc test for pair-wise comparisons.
Levels of lactate secreted by astrocytes were measured in the extracellular medium at 90 min after stimulation with hits (molecules) from the CDC54K library.

As to `Cc1cc(C)cc(NC(=O)CN2CCCC2c2ccc3c(c2)OCCCO3)c1` (stereo not drawn) [T5993799], the “Score Lact.” value was 1.14. For the same molecule, where the note is “Mus musculus, Astrocyte”, the EC50 (commonly the concentration needed to bring the measured effect to its halfway point) came to 8.81 µM.

In the case of `Cc1ccc(OCCn2c(C)nc3ccccc32)cc1` [T5444083], the “Score Lact.” value stood at 0.51.

Regarding `Cc1nc2ncnn2c(NCc2ccco2)c1C` [Z606-8298], the “Score Lact.” value came to 0.38. Take `Cc1ccc(S(=O)(=O)Nc2ccc(F)c(F)c2F)cc1[N+](=O)[O-]` [T5729557]: the “Score Lact.” value stood at 0.88. On to `CCNc1cc(C)nc(Nc2ccc(NC(=O)C3=CC=CC3)cc2)n1` [G869-0071], for which the “Score Lact.” value is recorded as 0.63. Besides, the EC50 (Mus musculus, Astrocyte) was found to be 4.9 µM. Regarding `Cc1cccc(NC(=O)c2ccc(S(=O)(=O)Nc3ccccc3)cc2)n1` [T6125251], the “Score Lact.” value was determined as 0.51. `CC(=O)N1CCCc2cc(S(=O)(=O)Nc3ccc(OC(F)(F)F)cc3)ccc21` [G855-0183]: the “Score Lact.” value worked out at 0.54. For the molecule `COc1cccc(C(CNc2nc(C(C)(C)C)nc3ccccc23)N(C)C)c1` (stereo not drawn) [T5800607], the “Score Lact.” value turned out to be 063. Also, where the note is “Mus musculus, Astrocyte”, the EC50 worked out at 5.87 µM. For `Br.CCOc1ccc(C2(O)C(C)C3=C(CCN3)N2c2ccc(OC)cc2)cc1` (stereo not drawn) [T0500-6629] the same measures were 0.61 and 2.61 µM. Take `N#Cc1cc(C(=O)c2cc(I)ccc2O)cn(-c2ccc(I)c(Cl)c2)c1=O` [T0516-6894]: the “Score Lact.” value came out at 0.38. Further, for the setting “Mus musculus, Astrocyte”, the EC50 turned out to be 8.21 µM. For the molecule `CN(C)c1ccc2ncnc(N3CCN(C(=O)c4ccc(Cl)cc4)CC3)c2c1` [M381-0730], the “Score Lact.” value is listed as 0.57. `CCc1c(C)nc2ncnn2c1NC1CCCCC1` [Z606-8352]: the “Score Lact.” value was found to be 0.83. Still for that read-out and setting: the same measure for `CCN(CC)C(=O)c1nc(CNC(=O)c2ccc3ccccc3n2)oc1C` [T993-1787]: 0.36. In the case of `O=c1[nH]nc(SCCOc2ccc(Br)cc2)n1C1CC1` [T533260], the “Score Lact.” value is 0.53. For the same molecule, where the note is “Mus musculus, Astrocyte”, the EC50 is 6.84 µM. With `CC(=O)c1c(C)[nH]c(C(=O)N(C)Cc2ccc(C)cc2C)c1C` [T5705522], the “Score Lact.” value worked out at 0.85. Still for that read-out and setting: the figure for `CCc1cccc(NS(=O)(=O)c2ccc3c(c2)CCCN3C(C)=O)c1` [G855-0143] is 0.56; for `Cc1noc2ncnc(NC(C)CCc3ccccc3)c12` (stereo not drawn) [E944-0182] it is 0.55. The same measure, in the same setting: the same measure for `CCCCN1C(=O)C(C)(C(=O)Nc2ccc(OCC)cc2)Oc2cccnc21` (stereo not drawn) [P621-1364]: 0.43. Regarding `Cc1cccc(NS(=O)(=O)c2ccc(F)c(Cl)c2)c1` [F3394-1364], the “Score Lact.” value came to 0.33 and the EC50 came to 5.87 µM.

Consider `COc1ccc(CCNc2ncnc3c2cnn3C)cc1` [K405-2595], for which the “Score Lact.” value is listed as 0.70. Take `CC(=O)Nc1cccc(NC(=O)CCc2nc(C)c(C)n2C2CCCC2)c1` [T5788339]: the “Score Lact.” value was found to be 0.75. Under “Mus musculus, Astrocyte”, the EC50 was 3.9 µM.

In the case of `CCn1c(=O)c(C)nc2cc(C(=O)N(Cc3ccc(C)cc3)C3CC3)ccc21` [T5586091], the “Score Lact.” value came out at 0.45. For the setting “Mus musculus, Astrocyte”, the half-maximal effective concentration (EC50) amounted to 5.36 µM. For the molecule `Cc1ccc(-c2c[nH]c(NC(=O)c3ccncc3)n2)cc1[N+](=O)[O-]` [T5694329], the “Score Lact.” value amounted to 0.47. Moreover, under “Mus musculus, Astrocyte”, the EC50 stood at 1.59 µM. Turning to `C1CCCC(NC2=NCCCNC23CCCCC3)CC1` [Z076-0028], the “Score Lact.” value turned out to be 0.56. For `O=S(=O)(Nc1ccc(S(=O)(=O)C(F)F)cc1)c1ccc(Cl)cc1` [T5311200], the “Score Lact.” value is 0.56. `CC1(C)Cc2cccc(OCC(O)CN3CCc4ccccc4C3)c2O1` (stereo not drawn) [T0515-1783]: the “Score Lact.” value amounted to 0.59. In the case of `CN1c2ccccc2C(=O)NC1c1ccc(Cl)c(Cl)c1` (stereo not drawn) [T5389517], the “Score Lact.” value is on record as 0.33. For the molecule `C1=C(c2ccccc2)c2c(ncnc2NCCN2CCOCC2)C1.O=C(O)C(=O)O.O=C(O)C(=O)O` [T0513-0213], the “Score Lact.” value turned out to be 0.30. The EC50 (Mus musculus, Astrocyte) turned out to be 3.99 µM. For `COc1ccc(C(C)NC(=O)c2cc(=O)c3ccccc3o2)cc1I` (stereo not drawn) [T5710343], in that order: 0.67 and 6.31 µM. Consider `CCOc1ccc(C2=CCc3c2ncn(Cc2ccncc2)c3=O)cc1OCC` [L115-0403], for which the “Score Lact.” value amounted to 0.81. Also, the EC50 (Mus musculus, Astrocyte) turned out to be 3.28 µM. On to `COc1ccc(NS(=O)(=O)c2cccc(NC(=O)c3ccc[nH]3)c2)cc1` [T0517-4117], for which the “Score Lact.” value stood at 0.91. Further, under “Mus musculus, Astrocyte”, the EC50 amounted to 5.43 µM.

For `CC(=O)N1CCc2cc(S(=O)(=O)NCC(C)c3ccccc3)ccc21` (stereo not drawn) [T5707230], the “Score Lact.” value was found to be 0.67 and the EC50 is 4.88 µM. For `COc1ccc(-c2csc(N3C(=O)CC4CS(=O)(=O)CC43)n2)cc1` (stereo not drawn) [T5832764] the same measures were 0.60 and 4.02 µM. For the molecule `Cc1nnsc1C(=O)N1CCN(C(C)C)CC1` [Z606-5341], the “Score Lact.” value was 0.36. On the same count and under the same terms, the same measure for `CC(=O)c1c(C)[nH]c(C(=O)C(C)N(C)Cc2ccc3c(c2)OCO3)c1C` (stereo not drawn) [T5798761]: 0.73. Take `CC(=O)N1CC(C)(C)c2cc(S(=O)(=O)NCc3ccc(C)cc3)ccc21` [L302-0069]: the “Score Lact.” value turned out to be 0.55. On to `CCNc1cc(C)nc(Nc2ccc(NC(=O)Cc3ccccc3)cc2)n1` [G869-0064], for which the “Score Lact.” value came to 0.54. Take `CN(C)S(=O)(=O)c1cccc(C(=O)Nc2ccc(Oc3ccccc3)cc2)c1` [T5393500]: the “Score Lact.” value came to 0.59. In the case of `C1=Cc2ncnc(NCc3ccc4c(c3)OCO4)c2C1` [T5787526], the “Score Lact.” value was 0.71. Moreover, under “Mus musculus, Astrocyte”, the EC50 was 3.89 µM. Consider `CCCCn1c(CN(C)Cc2ccccc2)nc2c1c(=O)n(C)c(=O)n2C` [T5788545], for which the “Score Lact.” value is listed as 0.45. Regarding `COc1ccc(CC(=O)Nc2ccc(C)c(C)c2)cc1OC` [Y030-2832], the “Score Lact.” value came to 0.34. `O=C(Nc1ccc(S(=O)(=O)NCC2CCCO2)cc1)c1ccccc1` (stereo not drawn) [Y031-0361]: the “Score Lact.” value came to 0.43.

In the case of `CCc1cc2c(NC3CCCC3)ncnc2s1` [887-0183], the “Score Lact.” value is on record as 0.66. As to `COc1ccccc1NC(=O)CO/N=C(/N)c1cccc(C(C)(F)F)c1` [T5770640], the “Score Lact.” value is given as 0.55. Also, the EC50 (Mus musculus, Astrocyte) was determined as 4.86 µM. For `CCc1ccc(NC(=O)Cc2cn(C)c3ncccc23)cc1` [M508-0370], the “Score Lact.” value is 0.60.

In the case of `CCc1ccccc1NC(=O)CN(C)c1nccc2c1oc1ccccc12` [T5712071], the “Score Lact.” value stood at 0.8. Moreover, the EC50 (Mus musculus, Astrocyte) is 1.14 µM.

Regarding `CCOc1ccc(CN(C)CC(=O)Nc2cccc(C)c2)cc1OC` [T5318833], the “Score Lact.” value worked out at 0.42. With `CCN1C(=O)c2cccc3c(S(=O)(=O)Nc4ccc(OC)cc4OC)ccc1c23` [T5477696], the “Score Lact.” value was 0.44. As for `O=S(=O)(Nc1ccc(Cl)cc1)c1ccc(F)c(Cl)c1` [T6947848], the “Score Lact.” value was found to be 0.98. `C1=Cc2ncnc(NCc3ccccc3CN3CCOCC3)c2C1` [T5790476]: the “Score Lact.” value worked out at 0.79. Under “Mus musculus, Astrocyte”, the EC50 amounted to 3.98 µM.

Take `CC(=O)N1CC(C)(C)c2cc(S(=O)(=O)Nc3ccc(I)cc3C)ccc21` [L302-0181]: the “Score Lact.” value was found to be 0.52. Under “Mus musculus, Astrocyte”, the EC50 is 5.05 µM. Regarding `Cc1[nH]c2nc(CNc3nc4ccccc4c(=O)n3C)[nH]c(=O)c2c1C` [T0517-2783], the “Score Lact.” value turned out to be 0.46. Also, for the setting “Mus musculus, Astrocyte”, the EC50 came to 3.84 µM. As for `Cc1c(O)ccc2c(CN(C)CC3COc4ccccc4O3)cc(=O)oc12` (stereo not drawn) [T5494352], the “Score Lact.” value is listed as 0.44.
